Data: ChEMBL document CHEMBL1145595, “5-Substituted isophthalamides as insulin receptor sensitizers” (Bioorg Med Chem Lett, 2008)
Calls of active or inactive are those of the source. The rule behind the calls is not given here.

Test system: not listed separately
Test: (§1) Activity at Insulin receptor in mouse 3T3-L1 cells assessed as glucose uptake
Type: cell-based

| EC50 [µM] | Structure (SMILES) |
| --- | --- |
| 61.7 | O=C(Nc1cc(C(=O)Nc2cccc3cc(O)ccc23)cc(C(=O)Nc2cccc3cc(S(=O)(=O)O)ccc23)c1)c1cccc(Cl)c1 |
| 90 | O=C(Nc1ccc2c(O)c(/N=N/c3ccc(/N=N/c4ccc(S(=O)(=O)O)cc4)cc3S(=O)(=O)O)c(S(=O)(=O)O)cc2c1)Nc1ccc2c(O)cc(S(=O)(=O)O)c(/N=N/c3ccc(/N=N/c4ccc(S(=O)(=O)O)cc4)cc3S(=O)(=O)O)c2c1 |
| 72.8 | O=C(Nc1cc(C(=O)Nc2cccc3cc(S(=O)(=O)O)ccc23)cc(C(=O)Nc2cccc3cc(S(=O)(=O)O)ccc23)c1)c1ccc(Cl)cc1 |
| 66.5 | O=C(Nc1cc(C(=O)Nc2cccc3ccccc23)cc(C(=O)Nc2cccc3cc(S(=O)(=O)O)ccc23)c1)c1cccc(Cl)c1 |
| 12.8 | O=C(Nc1cccc2cc(S(=O)(=O)O)ccc12)c1cc(NC(=O)c2cccc3ccccc23)cc(C(=O)Nc2cccc3cc(S(=O)(=O)O)ccc23)c1 |
| 135 | O=C(Nc1cccc2cc(S(=O)(=O)O)ccc12)c1cc(C(=O)Nc2cccc3cc(S(=O)(=O)O)ccc23)cc(C(=O)Nc2cccc3cc(S(=O)(=O)O)ccc23)c1 |
| 5.7 | O=C(Nc1cc(C(=O)Nc2cccc3cc(S(=O)(=O)O)ccc23)cc(C(=O)Nc2cccc3cc(S(=O)(=O)O)ccc23)c1)c1cccc(Cl)c1 |
| 44.5 | O=C(Nc1cc(C(=O)Nc2cccc3cc(S(=O)(=O)O)ccc23)cc(C(=O)Nc2cccc3cc(S(=O)(=O)O)ccc23)c1)c1cccc([N+](=O)[O-])c1 |
| 3.7 | O=C(Nc1cc(C(=O)Nc2cccc3cc(S(=O)(=O)O)ccc23)cc(C(=O)Nc2cccc3cc(S(=O)(=O)O)ccc23)c1)c1ccc2ccccc2c1 |
| 19.4 | O=C(Nc1cc(C(=O)Nc2cccc3cc(S(=O)(=O)O)ccc23)cc(C(=O)Nc2cccc3cc(S(=O)(=O)O)ccc23)c1)c1cccc(F)c1 |
| 78.5 | O=C(Nc1cc(C(=O)Nc2cccc3cc(S(=O)(=O)O)ccc23)cc(C(=O)Nc2cccc3cc(S(=O)(=O)O)ccc23)c1)c1ccc(F)cc1 |

Test system: 3T3-L1
Test: as §1
Type: cell-based

| Structure (SMILES) | Activity |
| --- | --- |
| O=C(Nc1cc(C(=O)Nc2cccc3cc(S(=O)(=O)O)ccc23)cc(C(=O)Nc2cccc3cc(S(=O)(=O)O)ccc23)c1)c1cccnc1 | inactive |
| O=C(Nc1cccc2cc(S(=O)(=O)O)ccc12)c1cc(NS(=O)(=O)c2ccc(F)cc2)cc(C(=O)Nc2cccc3cc(S(=O)(=O)O)ccc23)c1 | inactive |
| O=C(Cc1cccc(Cl)c1)Nc1cc(C(=O)Nc2cccc3cc(S(=O)(=O)O)ccc23)cc(C(=O)Nc2cccc3cc(S(=O)(=O)O)ccc23)c1 | inactive |
| O=C(Nc1cc(C(=O)Nc2cccc3cc(S(=O)(=O)O)ccc23)cc(C(=O)Nc2cccc3cc(S(=O)(=O)O)ccc23)c1)c1ccc([N+](=O)[O-])cc1 | inactive |
| O=C(Nc1cc(C(=O)Nc2cccc3cc(S(=O)(=O)O)ccc23)cc(C(=O)Nc2cccc3cc(S(=O)(=O)O)ccc23)c1)c1ccncc1 | inactive |
| O=C(Nc1cccc2cc(S(=O)(=O)O)ccc12)c1cc(NC(=O)C2CCCCC2)cc(C(=O)Nc2cccc3cc(S(=O)(=O)O)ccc23)c1 | inactive |
| O=C(Nc1cccc2cc(S(=O)(=O)O)ccc12)c1cc(NC(=O)c2ccco2)cc(C(=O)Nc2cccc3cc(S(=O)(=O)O)ccc23)c1 | inactive |
| O=C(Nc1cccc2cc(S(=O)(=O)O)ccc12)c1cc(NC(=O)c2cnc3ccccc3n2)cc(C(=O)Nc2cccc3cc(S(=O)(=O)O)ccc23)c1 | inactive |
| O=C(Nc1cccc(Cl)c1)Nc1cc(C(=O)Nc2cccc3cc(S(=O)(=O)O)ccc23)cc(C(=O)Nc2cccc3cc(S(=O)(=O)O)ccc23)c1 | inactive |
